# Experiments:
# Experiment in all cases: Kinase selectivity profiling
# Type in all cases: biochemical
# [1] = target: VEG-FR (Homo sapiens, UniProt P17948); conditions: for VEGFR inhibition: 1 μM; for VEG-FR % activity remaining: 1 µM, assay duplicates
# Method: (§1) [20] Kinase selectivity profiling for compounds 7a, 7d, 14d and 14g was carried out at the International Centre for Protein Kinase Profiling, Division of Signal Transduction Therapy, University of Dundee.
# (§2) Table S1: Kinase selectivity profiling of compounds 7a and 7d in a 102-kinase panel screened at a concentration of 1 µM.
# (§3) Table S2: Kinase selectivity profiling of compounds 14d and 14g in a 105-kinase panel screened at a concentration of 1 µM.
# [2] = target: SmMLCK (Homo sapiens, UniProt Q15746); conditions: 1 µM, assay duplicates
# Method: as §1, §2, §3
# [3] = target: BTK (Homo sapiens, UniProt Q06187); conditions: 1 µM, assay duplicates
# Method: as §1, §2, §3
# [4] = target: RSK1 (Homo sapiens, UniProt Q15418); conditions: 1 µM, assay duplicates
# Method: as §1, §2, §3
# [5] = target: PKBa (Homo sapiens, UniProt P31749); conditions: 1 µM, assay duplicates
# Method: as §1, §2, §3
# [6] = target: PIM3 (Homo sapiens, UniProt Q86V86); conditions: 1 µM, assay duplicates
# Method: as §1, §2, §3
# [7] = target: MARK2 (Homo sapiens, UniProt Q7KZI7); conditions: 1 µM, assay duplicates
# Method: as §1, §2, §3
# [8] = target: SYK (Homo sapiens, UniProt P43405); conditions: 1 µM, assay duplicates
# Method: as §1, §2, §3
# [9] = target: MAPKAP-K3 (Homo sapiens, UniProt Q16644); conditions: 1 µM, assay duplicates
# Method: as §1, §2, §3
# [10] = target: EPH-A4 (Homo sapiens, UniProt P54764); conditions: 1 µM, assay duplicates
# Method: as §1, §2, §3
# [11] = target: TTK (Homo sapiens, UniProt P33981); conditions: 1 µM, assay duplicates
# Method: as §1, §2, §3
# [12] = target: DYRK1A (Homo sapiens, UniProt Q13627); conditions: 1 µM, assay duplicates
# Method: as §1, §2, §3
# [13] = target: DYRK3 (Homo sapiens, UniProt O43781); conditions: 1 µM, assay duplicates
# Method: as §1, §2, §3
# [14] = target: p38a MAPK (Homo sapiens, UniProt Q16539); conditions: 1 µM, assay duplicates
# Method: as §1, §2, §3
# [15] = target: CAMKKb (Homo sapiens, UniProt Q96RR4); conditions: 1 µM, assay duplicates
# Method: as §1, §2, §3
# [16] = target: PIM1 (Homo sapiens, UniProt P11309); conditions: 1 µM, assay duplicates
# Method: as §1, §2, §3
# [17] = target: SRPK1 (Homo sapiens, UniProt Q96SB4); conditions: 1 µM, assay duplicates
# Method: as §1, §2, §3
# [18] = target: JAK2 (Homo sapiens, UniProt O60674); conditions: for JAK2 inhibition: 1 μM; for JAK2 % activity remaining: 1 µM, assay duplicates
# Method: as §1, §2, §3
# [19] = target: PHK (Homo sapiens, UniProt Q16816); conditions: 1 µM, assay duplicates
# Method: as §1, §2, §3
# [20] = target: CK1 (Homo sapiens, UniProt P48730); conditions: 1 µM, assay duplicates
# Method: as §1, §2, §3
# [21] = target: MST4 (Homo sapiens, UniProt Q9P289); conditions: 1 µM, assay duplicates
# Method: as §1, §2, §3
# [22] = target: TrkA (Homo sapiens, UniProt P04629); conditions: for TrkA inhibition: 1 μM; for TrkA % activity remaining: 1 µM, assay duplicates
# Method: as §1, §2, §3
# [23] = target: JNK3 (Homo sapiens, UniProt P53779); conditions: 1 µM, assay duplicates
# Method: as §1, §2, §3
# [24] = target: MARK4 (Homo sapiens, UniProt Q96L34); conditions: 1 µM, assay duplicates
# Method: as §1, §2, §3
# [25] = target: IRAK4 (Homo sapiens, UniProt Q9NWZ3); conditions: 1 µM, assay duplicates
# Method: as §1, §2, §3
# [26] = target: MEKK1 (Homo sapiens, UniProt Q13233); conditions: 1 µM, assay duplicates
# Method: as §1, §2, §3
# [27] = target: NEK6 (Homo sapiens, UniProt Q9HC98); conditions: 1 µM, assay duplicates
# Method: as §1, §2, §3
# [28] = target: RSK2 (Homo sapiens, UniProt P51812); conditions: 1 µM, assay duplicates
# Method: as §1, §2, §3
# [29] = tested on: AMPK; conditions: 1 µM, assay duplicates
# Method: as §1, §2, §3
# [30] = target: HER4 (Homo sapiens, UniProt Q15303); conditions: 1 µM, assay duplicates
# Method: as §1, §2, §3
# [31] = target: MKK1 (Homo sapiens, UniProt Q02750); conditions: 1 µM, assay duplicates
# Method: as §1, §2, §3
# [32] = target: EPH-A2 (Homo sapiens, UniProt P29317); conditions: 1 µM, assay duplicates
# Method: as §1, §2, §3
# [33] = target: ERK2 (Homo sapiens, UniProt P28482); conditions: 1 µM, assay duplicates
# Method: as §1, §2, §3
# [34] = target: GSK3b (Homo sapiens, UniProt P49841); conditions: for GSK3b % activity remaining: 1 µM, assay duplicates
# Method: as §1, §2, §3
# [35] = target: PAK4 (Homo sapiens, UniProt O96013); conditions: 1 µM, assay duplicates
# Method: as §1, §2, §3
# [36] = target: MARK3 (Homo sapiens, UniProt P27448); conditions: 1 µM, assay duplicates
# Method: as §1, §2, §3
# [37] = target: NEK2a (Homo sapiens, UniProt P51955); conditions: 1 µM, assay duplicates
# Method: as §1, §2, §3
# [38] = target: EPH-B3 (Homo sapiens, UniProt P54753); conditions: 1 µM, assay duplicates
# Method: as §1, §2, §3
# [39] = target: NUAK1 (Homo sapiens, UniProt O60285); conditions: 1 µM, assay duplicates
# Method: as §1, §2, §3
# [40] = target: p38b MAPK (Homo sapiens, UniProt Q15759); conditions: 1 µM, assay duplicates
# Method: as §1, §2, §3
# [41] = target: MELK (Homo sapiens, UniProt Q14680); conditions: 1 µM, assay duplicates
# Method: as §1, §2, §3
# [42] = target: p38g MAPK (Homo sapiens, UniProt P53778); conditions: 1 µM, assay duplicates
# Method: as §1, §2, §3
# Chain of GSK3b (P49841 whole entry): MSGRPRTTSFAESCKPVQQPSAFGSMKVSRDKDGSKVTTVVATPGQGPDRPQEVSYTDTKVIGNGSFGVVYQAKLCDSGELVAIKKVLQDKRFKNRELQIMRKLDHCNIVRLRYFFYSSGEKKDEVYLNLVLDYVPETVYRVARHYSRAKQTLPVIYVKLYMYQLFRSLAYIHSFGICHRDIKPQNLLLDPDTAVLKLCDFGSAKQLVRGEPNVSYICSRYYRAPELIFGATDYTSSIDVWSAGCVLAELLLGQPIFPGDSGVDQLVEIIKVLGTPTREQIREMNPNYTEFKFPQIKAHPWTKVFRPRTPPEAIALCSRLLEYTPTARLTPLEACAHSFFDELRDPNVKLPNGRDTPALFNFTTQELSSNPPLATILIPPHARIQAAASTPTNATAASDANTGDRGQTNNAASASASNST
# Chain of TrkA (P04629 33-796): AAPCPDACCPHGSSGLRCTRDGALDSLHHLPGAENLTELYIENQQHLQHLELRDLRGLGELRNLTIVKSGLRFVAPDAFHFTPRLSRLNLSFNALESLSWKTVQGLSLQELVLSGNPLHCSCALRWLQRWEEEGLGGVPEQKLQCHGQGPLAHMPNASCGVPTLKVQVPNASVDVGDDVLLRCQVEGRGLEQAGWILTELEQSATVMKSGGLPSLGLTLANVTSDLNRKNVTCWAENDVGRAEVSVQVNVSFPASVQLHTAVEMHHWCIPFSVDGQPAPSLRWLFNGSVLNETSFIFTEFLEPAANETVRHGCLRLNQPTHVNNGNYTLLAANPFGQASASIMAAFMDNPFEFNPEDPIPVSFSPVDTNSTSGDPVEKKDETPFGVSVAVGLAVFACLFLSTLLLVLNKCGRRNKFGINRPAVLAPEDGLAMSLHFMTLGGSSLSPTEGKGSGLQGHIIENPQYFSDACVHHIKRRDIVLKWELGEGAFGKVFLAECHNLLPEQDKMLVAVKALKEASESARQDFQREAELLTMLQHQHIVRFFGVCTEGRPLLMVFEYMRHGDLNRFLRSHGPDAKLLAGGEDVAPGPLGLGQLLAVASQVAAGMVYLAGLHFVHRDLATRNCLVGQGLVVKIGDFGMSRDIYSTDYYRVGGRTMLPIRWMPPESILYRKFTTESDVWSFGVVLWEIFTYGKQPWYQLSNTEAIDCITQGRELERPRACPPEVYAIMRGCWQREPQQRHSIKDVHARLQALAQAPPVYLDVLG
# Chain of JAK2 (O60674 whole entry): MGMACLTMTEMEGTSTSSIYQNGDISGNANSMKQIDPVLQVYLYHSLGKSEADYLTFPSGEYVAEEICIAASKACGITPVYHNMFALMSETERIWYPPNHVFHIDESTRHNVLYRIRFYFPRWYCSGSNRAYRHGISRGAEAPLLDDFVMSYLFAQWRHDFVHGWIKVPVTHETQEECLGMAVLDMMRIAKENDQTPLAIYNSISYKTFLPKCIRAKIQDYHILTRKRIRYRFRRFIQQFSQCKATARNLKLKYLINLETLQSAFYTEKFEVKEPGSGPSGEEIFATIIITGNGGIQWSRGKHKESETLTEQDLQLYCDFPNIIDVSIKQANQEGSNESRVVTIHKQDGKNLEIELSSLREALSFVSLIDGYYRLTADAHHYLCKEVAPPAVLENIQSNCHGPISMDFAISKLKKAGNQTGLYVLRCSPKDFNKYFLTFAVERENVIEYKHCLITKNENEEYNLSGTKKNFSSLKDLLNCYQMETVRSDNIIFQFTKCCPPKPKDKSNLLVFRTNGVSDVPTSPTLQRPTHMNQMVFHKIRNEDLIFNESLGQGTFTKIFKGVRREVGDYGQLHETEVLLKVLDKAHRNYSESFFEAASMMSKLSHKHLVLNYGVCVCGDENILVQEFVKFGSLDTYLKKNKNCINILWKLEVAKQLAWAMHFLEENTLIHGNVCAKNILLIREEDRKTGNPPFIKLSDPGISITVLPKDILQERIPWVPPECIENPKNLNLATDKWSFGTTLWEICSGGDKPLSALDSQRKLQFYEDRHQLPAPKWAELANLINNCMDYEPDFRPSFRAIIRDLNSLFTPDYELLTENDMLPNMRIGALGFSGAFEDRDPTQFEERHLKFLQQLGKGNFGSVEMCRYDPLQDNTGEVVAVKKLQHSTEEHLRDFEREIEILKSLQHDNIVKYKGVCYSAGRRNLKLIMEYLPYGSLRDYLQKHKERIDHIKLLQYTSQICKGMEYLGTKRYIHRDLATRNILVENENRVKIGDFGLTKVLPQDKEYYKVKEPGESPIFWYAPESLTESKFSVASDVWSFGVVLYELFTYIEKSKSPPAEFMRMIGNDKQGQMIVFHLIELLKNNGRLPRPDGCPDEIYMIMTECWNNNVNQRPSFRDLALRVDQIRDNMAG
# Chain of VEG-FR (P17948 27-1338): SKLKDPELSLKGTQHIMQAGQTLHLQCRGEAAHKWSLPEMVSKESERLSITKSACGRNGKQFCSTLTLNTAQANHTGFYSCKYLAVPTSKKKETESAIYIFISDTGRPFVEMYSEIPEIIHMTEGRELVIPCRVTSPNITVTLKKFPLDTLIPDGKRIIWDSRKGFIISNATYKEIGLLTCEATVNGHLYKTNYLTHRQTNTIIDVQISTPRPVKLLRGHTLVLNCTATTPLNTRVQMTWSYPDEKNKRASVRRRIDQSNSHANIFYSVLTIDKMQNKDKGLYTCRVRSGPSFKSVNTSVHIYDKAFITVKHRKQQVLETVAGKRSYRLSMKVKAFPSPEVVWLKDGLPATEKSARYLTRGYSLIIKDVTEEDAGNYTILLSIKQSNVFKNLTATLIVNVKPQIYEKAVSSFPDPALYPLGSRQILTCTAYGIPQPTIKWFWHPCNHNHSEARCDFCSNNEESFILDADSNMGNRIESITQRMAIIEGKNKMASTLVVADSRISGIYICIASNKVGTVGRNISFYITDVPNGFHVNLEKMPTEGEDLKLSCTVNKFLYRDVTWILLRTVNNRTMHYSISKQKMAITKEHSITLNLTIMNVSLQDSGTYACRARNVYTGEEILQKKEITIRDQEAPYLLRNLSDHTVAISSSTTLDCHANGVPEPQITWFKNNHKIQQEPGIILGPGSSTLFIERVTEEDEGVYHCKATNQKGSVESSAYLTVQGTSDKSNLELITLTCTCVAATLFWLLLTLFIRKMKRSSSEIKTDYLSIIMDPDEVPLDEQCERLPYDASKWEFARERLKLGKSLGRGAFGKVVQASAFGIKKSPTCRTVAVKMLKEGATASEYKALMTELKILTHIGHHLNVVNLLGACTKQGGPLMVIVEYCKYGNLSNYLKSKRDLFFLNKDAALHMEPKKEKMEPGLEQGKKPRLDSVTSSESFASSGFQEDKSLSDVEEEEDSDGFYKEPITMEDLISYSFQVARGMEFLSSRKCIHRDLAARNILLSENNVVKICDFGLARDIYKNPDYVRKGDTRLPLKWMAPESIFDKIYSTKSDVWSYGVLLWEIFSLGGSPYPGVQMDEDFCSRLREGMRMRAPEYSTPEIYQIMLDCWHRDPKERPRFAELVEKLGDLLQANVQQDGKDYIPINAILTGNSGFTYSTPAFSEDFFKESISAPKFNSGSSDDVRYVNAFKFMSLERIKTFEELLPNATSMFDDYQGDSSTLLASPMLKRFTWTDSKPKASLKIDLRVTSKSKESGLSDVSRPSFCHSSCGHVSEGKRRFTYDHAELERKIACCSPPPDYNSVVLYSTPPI
# Chain of p38g MAPK (P53778 whole entry): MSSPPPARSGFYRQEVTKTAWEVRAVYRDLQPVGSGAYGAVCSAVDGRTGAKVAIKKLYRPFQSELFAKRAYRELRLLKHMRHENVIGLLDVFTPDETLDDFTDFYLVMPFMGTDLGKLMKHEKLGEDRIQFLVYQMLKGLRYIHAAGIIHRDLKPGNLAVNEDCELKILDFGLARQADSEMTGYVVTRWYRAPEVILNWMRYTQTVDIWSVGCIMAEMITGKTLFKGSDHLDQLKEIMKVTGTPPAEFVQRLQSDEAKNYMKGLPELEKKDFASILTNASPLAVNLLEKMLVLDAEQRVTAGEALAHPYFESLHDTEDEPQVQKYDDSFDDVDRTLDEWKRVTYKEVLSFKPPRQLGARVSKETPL
# Chain of IRAK4 (Q9NWZ3 whole entry): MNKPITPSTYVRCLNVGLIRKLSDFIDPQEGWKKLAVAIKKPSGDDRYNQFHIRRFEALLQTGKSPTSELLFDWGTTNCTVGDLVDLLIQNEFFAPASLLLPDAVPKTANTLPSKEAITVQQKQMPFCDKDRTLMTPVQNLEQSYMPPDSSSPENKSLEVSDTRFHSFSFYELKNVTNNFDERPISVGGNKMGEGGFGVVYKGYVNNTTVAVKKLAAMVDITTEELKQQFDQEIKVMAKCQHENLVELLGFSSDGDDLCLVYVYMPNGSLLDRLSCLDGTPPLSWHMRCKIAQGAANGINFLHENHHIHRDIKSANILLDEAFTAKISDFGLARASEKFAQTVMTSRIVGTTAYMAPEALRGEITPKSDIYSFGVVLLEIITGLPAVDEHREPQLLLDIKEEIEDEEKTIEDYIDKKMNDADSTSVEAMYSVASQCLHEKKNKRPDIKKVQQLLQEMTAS
# Chain of p38b MAPK (Q15759 whole entry): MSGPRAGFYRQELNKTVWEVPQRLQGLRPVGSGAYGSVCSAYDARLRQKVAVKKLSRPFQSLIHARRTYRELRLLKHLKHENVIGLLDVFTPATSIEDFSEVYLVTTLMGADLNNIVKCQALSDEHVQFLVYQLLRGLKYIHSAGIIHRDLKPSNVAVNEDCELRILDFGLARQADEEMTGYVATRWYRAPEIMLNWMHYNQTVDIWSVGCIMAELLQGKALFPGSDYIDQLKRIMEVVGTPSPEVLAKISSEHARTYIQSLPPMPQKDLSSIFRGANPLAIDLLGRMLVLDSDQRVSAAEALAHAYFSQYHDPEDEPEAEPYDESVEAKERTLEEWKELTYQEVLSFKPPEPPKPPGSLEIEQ
smiles,measurement,setting,value
Cc1nn(C)cc1-c1nc2c(-c3cnn(Cc4ccccc4)c3)c(Cl)cnc2[nH]1 [Compound 7a],VEGFR inhibition,[1],greater than 80%
same,VEG-FR % activity remaining,[1],6%
same,SmMLCK % activity remaining,[2],51%
same,BTK % activity remaining,[3],46%
same,RSK1 % activity remaining,[4],25%
same,PKBa % activity remaining,[5],70%
same,PIM3 % activity remaining,[6],45%
same,MARK2 % activity remaining,[7],31%
same,SYK % activity remaining,[8],37%
same,MAPKAP-K3 % activity remaining,[9],69%
same,EPH-A4 % activity remaining,[10],54%
same,TTK % activity remaining,[11],29%
same,DYRK1A % activity remaining,[12],3%
same,DYRK3 % activity remaining,[13],25%
same,p38a MAPK % activity remaining,[14],90%
same,CAMKKb % activity remaining,[15],19%
same,PIM1 % activity remaining,[16],71%
same,SRPK1 % activity remaining,[17],73%
same,JAK2 inhibition,[18],greater than 80%
same,JAK2 % activity remaining,[18],2%
same,PHK % activity remaining,[19],17%
same,CK1 % activity remaining,[20],63%
same,MST4 % activity remaining,[21],64%
same,TrkA inhibition,[22],greater than 80%
same,TrkA % activity remaining,[22],6%
same,JNK3 % activity remaining,[23],18%
same,MARK4 % activity remaining,[24],37%
same,IRAK4 % activity remaining,[25],28%
same,MEKK1 % activity remaining,[26],74%
same,NEK6 % activity remaining,[27],64%
same,RSK2 % activity remaining,[28],42%
same,AMPK % activity remaining,[29],50%
same,HER4 % activity remaining,[30],89%
same,MKK1 % activity remaining,[31],28%
same,EPH-A2 % activity remaining,[32],70%
same,ERK2 % activity remaining,[33],16%
same,GSK3β inhibition,[34]; 1 μM,greater than 80%
same,GSK3b % activity remaining,[34],2%
same,PAK4 % activity remaining,[35],23%
same,MARK3 % activity remaining,[36],20%
same,NEK2a % activity remaining,[37],67%
same,EPH-B3 % activity remaining,[38],99%
same,NUAK1 % activity remaining,[39],1%
same,p38b MAPK % activity remaining,[40],91%
same,MELK % activity remaining,[41],19%
same,p38g MAPK % activity remaining,[42],17%
Cc1cc(Cn2cc(-c3c(Cl)cnc4[nH]c(-c5cn(C)nc5C)nc34)cn2)no1 [Compound 14d],VEGFR inhibition,[1],≥ 80%
same,VEG-FR % activity remaining,[1],7%
same,SmMLCK % activity remaining,[2],43%
same,BTK % activity remaining,[3],33%
same,RSK1 % activity remaining,[4],28%
same,PKBa % activity remaining,[5],99%
same,PIM3 % activity remaining,[6],55%
same,MARK2 % activity remaining,[7],28%
same,SYK % activity remaining,[8],49%
same,MAPKAP-K3 % activity remaining,[9],103%
same,EPH-A4 % activity remaining,[10],51%
same,TTK % activity remaining,[11],42%
same,DYRK1A % activity remaining,[12],9%
same,DYRK3 % activity remaining,[13],30%
same,p38a MAPK % activity remaining,[14],85%
same,CAMKKb % activity remaining,[15],42%
same,PIM1 % activity remaining,[16],96%
same,SRPK1 % activity remaining,[17],31%
same,JAK2 inhibition,[18],≥ 80%
same,JAK2 % activity remaining,[18],2%
same,PHK % activity remaining,[19],27%
same,CK1 % activity remaining,[20],78%
same,MST4 % activity remaining,[21],56%
same,TrkA inhibition,[22],≥ 80%
same,TrkA % activity remaining,[22],15%
same,JNK3 % activity remaining,[23],62%
same,MARK4 % activity remaining,[24],25%
same,IRAK4 % activity remaining,[25],33%
same,MEKK1 % activity remaining,[26],66%
same,NEK6 % activity remaining,[27],116%
same,RSK2 % activity remaining,[28],20%
same,AMPK % activity remaining,[29],34%
same,HER4 % activity remaining,[30],73%
same,MKK1 % activity remaining,[31],40%
same,EPH-A2 % activity remaining,[32],57%
same,ERK2 % activity remaining,[33],32%
same,GSK3b % activity remaining,[34],47%
same,PAK4 % activity remaining,[35],25%
same,MARK3 % activity remaining,[36],19%
same,NEK2a % activity remaining,[37],71%
same,EPH-B3 % activity remaining,[38],54%
same,NUAK1 % activity remaining,[39],8%
same,p38b MAPK % activity remaining,[40],91%
same,MELK % activity remaining,[41],49%
same,p38g MAPK % activity remaining,[42],36%
